Consider four compounds from US20230126893A1, “[(1,4,5-TRISUBSTITUTED-1H-PYRAZOL-3-YL)SULFANYL]ACETIC ACID DERIVATIVES, SALTS THEREOF, AND USE THEREOF AS ACTIVE HERBICIDAL INGREDIENTS” (BAYER AKTIENGESELLSCHAFT, priority 2020, published 2023).

Assay type in all cases: in vivo
Test [1] concerns Echinochloa crus-galli. Briefly: Post-emergence herbicidal effect against ECHCG. The note with it: 1280 g/ha, visual score after about 3 weeks, 100% = plants have died, 0% = like control plants. The essentials: (§1)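 Percent herbicidal effect, judged visually against untreated plants about 3 weeks after treatment, where 100% means dead plants. Treatment was a foliar spray of WP or EC formulations (600 to 800 l/ha water, 0.2% wetting agent) on one-leaf-stage plants raised in sandy loam.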

A further test relates to Lolium rigidum. Briefly: Pre-emergence herbicidal effect against LOLRI. The following applies: 1280 g/ha, visual score after 3 weeks, 100% = plants have died, 0% = like control plants. The essentials:
(§2)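 Percent herbicidal activity (100% = dead, 0% = as control) was rated by eye 3 weeks post-application in greenhouse pots of sandy loam, with treatment sprayed onto the covering soil before emergence.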

Test [2] relates to Poa annua. Put plainly: Pre-emergence herbicidal effect against POAAN. The note with it: 1280 g/ha, visual score after 3 weeks, 100% = plants have died, 0% = like control plants. The essentials: as §2
Test [3] has as its system Echinochloa crus-galli. Put plainly: Pre-emergence herbicidal effect against ECHCG. The following applies: 1280 g/ha, visual score after 3 weeks, 100% = plants have died, 0% = like control plants. The essentials: as §2
Test [4] has as its system Stellaria media. Put plainly: Post-emergence herbicidal effect against STEME. The note with it: 1280 g/ha, visual assessment about 3 weeks after treatment, 100% = plants have died, 0% = like control plants. The procedure, abridged:
as §1

The test system of test [5] is Tripleurospermum inodorum. Put plainly: Post-emergence herbicidal effect against MATIN. The following applies: 1280 g/ha, visual assessment about 3 weeks after treatment, 100% = plants have died, 0% = like control plants. The procedure, abridged: as §1
Test [6] relates to Poa annua. Briefly: Post-emergence herbicidal effect against POAAN. The note with it: 1280 g/ha, visual assessment about 3 weeks after treatment, 100% = plants have died, 0% = like control plants. The procedure, abridged: as §1
Test [7] deals with Bassia scoparia. Briefly: Pre-emergence herbicidal effect against KCHSC. The following applies: 1280 g/ha, visual score after 3 weeks, 100% = plants have died, 0% = like control plants. An excerpt: (§3) 1. Pre-emergence herbicidal effect and crop plant compatibility Seeds of monocotyledonous and dicotyledonous weed plants and crop plants are laid out in sandy loam soil in wood-fibre pots and covered with soil. The compounds of the invention, formulated in the form of wettable powders (WP) or as emulsion concentrates (EC), are then applied to the surface of the covering soil as aqueous suspension or emulsion at a water application rate equating to 600 to 800 L/ha with addition of 0.2% wetting agent. After the treatment, the pots are placed in a greenhouse and kept under good growth conditions for the trial plants. The damage to the test plants is scored visually after a test period of 3 weeks by comparison with untreated controls (herbicidal activity in percent (%): 100% activity=the plants have died, 0% activity=like control plants). [table]

Test [8] relates to Amaranthus retroflexus. Put plainly: Post-emergence herbicidal effect against AMARE. The note with it: 1280 g/ha, visual assessment about 3 weeks after treatment, 100% = plants have died, 0% = like control plants. The method, then: [table] 2. Post-emergence herbicidal effect and crop plant compatibility Seeds of monocotyledonous and dicotyledonous weed and crop plants are laid out in sandy loam soil in wood-fibre pots, covered with soil and cultivated in a greenhouse under good growth conditions. 2 to 3 weeks after sowing, the test plants are treated at the one-leaf stage. The compounds of the invention, formulated in the form of wettable powders (WP) or as emulsion concentrates (EC), are then sprayed onto the green parts of the plants as aqueous suspension or emulsion at a water application rate equating to 600 to 800 l/ha with addition of 0.2% wetting agent. After the test plants have been left to stand in the greenhouse under optimal growth conditions for about 3 weeks, the action of the preparations is assessed visually in comparison to untreated controls (herbicidal action in percent (%): 100% activity=the plants have died, 0% activity=like control plants).

For test [9], the system named is Setaria viridis. Briefly: Post-emergence herbicidal effect against SETVI. The following applies: 1280 g/ha, visual assessment about 3 weeks after treatment, 100% = plants have died, 0% = like control plants. The essentials:
as §1

Test [10] deals with Stellaria media. Briefly: Pre-emergence herbicidal effect against STEME. The note with it: 1280 g/ha, visual score after 3 weeks, 100% = plants have died, 0% = like control plants. The essentials: as §2
Test [11] deals with Veronica persica. Briefly: Pre-emergence herbicidal effect against VERPE. The note with it: 1280 g/ha, visual score after 3 weeks, 100% = plants have died, 0% = like control plants. The procedure, abridged:
as §2

Test [12] concerns Alopecurus myosuroides. Briefly: Pre-emergence herbicidal effect against ALOMY. The note with it: 1280 g/ha, visual score after 3 weeks, 100% = plants have died, 0% = like control plants. The essentials: as §2
Test [13] relates to Bassia scoparia. Briefly: Post-emergence herbicidal effect against KCHSC. The note with it: 1280 g/ha, visual assessment about 3 weeks after treatment, 100% = plants have died, 0% = like control plants. The procedure, abridged:
as §1

Test [14] has as its system Abutylon threophrasti. Briefly: Post-emergence herbicidal effect against ABUTH. The note with it: 1280 g/ha, visual assessment about 3 weeks after treatment, 100% = plants have died, 0% = like control plants. The procedure, abridged:
as §1

Test [15] has as its system Veronica persica. Briefly: Post-emergence herbicidal effect against VERPE. The following applies: 1280 g/ha, visual assessment about 3 weeks after treatment, 100% = plants have died, 0% = like control plants. The essentials:
as §1

In another test the test system is Digitaria sanguinalis. Put plainly: Pre-emergence herbicidal effect against DIGSA. The following applies: 1280 g/ha, visual score after 3 weeks, 100% = plants have died, 0% = like control plants. The procedure, abridged: as §2
For test [16], the system named is Setaria viridis. Briefly: Pre-emergence herbicidal effect against SETVI. The following applies: 1280 g/ha, visual score after 3 weeks, 100% = plants have died, 0% = like control plants. The procedure, abridged: as §2
In test [17] the test system is Tripleurospermum inodorum. Put plainly: Pre-emergence herbicidal effect against MATIN. The following applies: 1280 g/ha, visual score after 3 weeks, 100% = plants have died, 0% = like control plants. The essentials: as §2
The subject of test [18] is Abutylon threophrasti. Briefly: Pre-emergence herbicidal effect against ABUTH. The note with it: 1280 g/ha, visual score after 3 weeks, 100% = plants have died, 0% = like control plants.
From the text: as §3

In test [19] the test system is Amaranthus retroflexus. Put plainly: Pre-emergence herbicidal effect against AMARE. The note with it: 1280 g/ha, visual score after 3 weeks, 100% = plants have died, 0% = like control plants. The procedure, abridged: as §2
Test [20] has as its system Alopecurus myosuroides. Put plainly: Post-emergence herbicidal effect against ALOMY. The following applies: 1280 g/ha, visual score after about 3 weeks, 100% = plants have died, 0% = like control plants. The procedure, abridged: as §1

For the compound `CCOC(=O)C[S+]([O-])c1nn(-c2ccccc2F)c(-c2cncc(Cl)c2)c1Br` (stereo not drawn) [II-013], in the test on Echinochloa crus-galli [1], the “Post-emergence action against ECHCG” value was determined as 100%. In addition, in the test with Lolium rigidum, the “Pre-emergence action against LOLRI” value is given as 100%. For the same compound, the “Pre-emergence action against POAAN” value in the test with Poa annua [2] is on record as 100%. Further, the “Pre-emergence action against ECHCG” value with Echinochloa crus-galli [3] came to 100%. For the same compound, the “Post-emergence action against STEME” value with Stellaria media [4] was 100%. In test [5], the “Post-emergence action against MATIN” value is 100%. Moreover, in the test with Poa annua [6], the “Post-emergence action against POAAN” value was 100%. Besides, the “Pre-emergence action against KCHSC” value in the test on Bassia scoparia [7] came out at 90%. For the same compound, the “Post-emergence action against AMARE” value in the test with Amaranthus retroflexus [8] worked out at 90%. For the same compound, in the test with Setaria viridis [9], the “Post-emergence action against SETVI” value was found to be 90%. The “Pre-emergence action against STEME” value in the test with Stellaria media [10] was 100%. The “Pre-emergence action against VERPE” value in the test on Veronica persica [11] is reported as 100%. Further, the “Pre-emergence action against ALOMY” value in the test with Alopecurus myosuroides [12] is 100%. Further, the “Post-emergence action against KCHSC” value in the test on Bassia scoparia [13] worked out at 90%. Besides, in the test with Abutylon threophrasti [14], the “Post-emergence action against ABUTH” value was 100%. The “Post-emergence action against VERPE” value with Veronica persica [15] stood at 100%. For the same compound, the “Pre-emergence action against DIGSA” value in the test on Digitaria sanguinalis was determined as 100%. Besides, the “Pre-emergence action against SETVI” value in the test with Setaria viridis [16] came out at 100%. Also, in test [17], the “Pre-emergence action against MATIN” value was 100%. The “Pre-emergence action against ABUTH” value with Abutylon threophrasti [18] is on record as 90%. Also, the “Pre-emergence action against AMARE” value in the test on Amaranthus retroflexus [19] amounted to 100%.

Turning to `COC(=O)CN(C)C(=O)CSc1nn(-c2ccccc2F)c(-c2ccc(F)c(F)c2)c1Cl` [VII-002], the “Pre-emergence action against ECHCG” value in the test on Echinochloa crus-galli [3] is reported as 100%. Moreover, in the test on Stellaria media [4], the “Post-emergence action against STEME” value is reported as 90%. The “Post-emergence action against MATIN” value in test [5] was found to be 90%. The “Post-emergence action against POAAN” value in the test on Poa annua [6] came out at 100%. The “Pre-emergence action against KCHSC” value in the test with Bassia scoparia [7] is reported as 90%. Further, the “Post-emergence action against SETVI” value in the test with Setaria viridis [9] turned out to be 90%. In addition, the “Pre-emergence action against STEME” value in the test with Stellaria media [10] is reported as 100%. The “Pre-emergence action against VERPE” value in the test with Veronica persica [11] was found to be 90%. Also, the “Post-emergence action against VERPE” value in the test on Veronica persica [15] is on record as 90%. For the same compound, in the test on Setaria viridis [16], the “Pre-emergence action against SETVI” value turned out to be 100%.

Take `COC(=O)CNC(=O)CSc1nn(-c2ccccc2F)c(-c2cccnc2)c1Br` [VII-007]: the “Post-emergence action against ECHCG” value in the test with Echinochloa crus-galli [1] worked out at 90%. Besides, in the test on Poa annua [2], the “Pre-emergence action against POAAN” value is 100%. The “Pre-emergence action against ECHCG” value in the test on Echinochloa crus-galli [3] was 100%. In addition, the “Post-emergence action against ALOMY” value in the test with Alopecurus myosuroides [20] was determined as 90%. Moreover, the “Post-emergence action against STEME” value with Stellaria media [4] amounted to 90%. Besides, the “Post-emergence action against MATIN” value in [5] turned out to be 90%. Also, the “Post-emergence action against POAAN” value in the test on Poa annua [6] is on record as 90%. For the same compound, the “Pre-emergence action against KCHSC” value in the test with Bassia scoparia [7] was found to be 90%. Further, in the test on Setaria viridis [9], the “Post-emergence action against SETVI” value stood at 90%. The “Pre-emergence action against STEME” value with Stellaria media [10] stood at 90%. The “Pre-emergence action against VERPE” value in the test with Veronica persica [11] came to 90%. In addition, in the test on Alopecurus myosuroides [12], the “Pre-emergence action against ALOMY” value was 90%. Also, the “Post-emergence action against KCHSC” value in the test with Bassia scoparia [13] worked out at 90%. In the test on Abutylon threophrasti [14], the “Post-emergence action against ABUTH” value is 90%. Also, in the test with Veronica persica [15], the “Post-emergence action against VERPE” value came out at 90%. For the same compound, the “Pre-emergence action against SETVI” value with Setaria viridis [16] is on record as 100%. Also, in test [17], the “Pre-emergence action against MATIN” value was determined as 90%.

On to `COC(=O)CNC(=O)CSc1nn(-c2ccccc2F)c(-c2cncc(F)c2)c1Br` [VII-009], for which the “Post-emergence action against ECHCG” value in the test with Echinochloa crus-galli [1] amounted to 90%. In addition, the “Pre-emergence action against LOLRI” value with Lolium rigidum is given as 100%. Also, the “Pre-emergence action against POAAN” value with Poa annua [2] was 100%. The “Pre-emergence action against ECHCG” value in the test with Echinochloa crus-galli [3] is on record as 90%. Moreover, the “Post-emergence action against ALOMY” value in the test with Alopecurus myosuroides [20] is listed as 90%. In addition, the “Post-emergence action against STEME” value in the test with Stellaria media [4] came out at 100%. Also, the “Post-emergence action against MATIN” value in test [5] is reported as 90%. The “Post-emergence action against POAAN” value with Poa annua [6] is listed as 100%. Also, the “Post-emergence action against SETVI” value in the test on Setaria viridis [9] came out at 90%. Besides, the “Pre-emergence action against STEME” value in the test with Stellaria media [10] is given as 100%. Further, in the test on Veronica persica [11], the “Pre-emergence action against VERPE” value came out at 100%. Also, in the test on Alopecurus myosuroides [12], the “Pre-emergence action against ALOMY” value is listed as 90%. Also, in the test with Bassia scoparia [13], the “Post-emergence action against KCHSC” value amounted to 90%. In addition, in the test with Abutylon threophrasti [14], the “Post-emergence action against ABUTH” value was 90%. Also, in the test on Veronica persica [15], the “Post-emergence action against VERPE” value is recorded as 90%. For the same compound, the “Pre-emergence action against SETVI” value in the test with Setaria viridis [16] is given as 100%. In test [17], the “Pre-emergence action against MATIN” value is given as 100%. For the same compound, the “Pre-emergence action against ABUTH” value in the test with Abutylon threophrasti [18] is on record as 90%.
